From patent US10709769B2, “Use of endostatin peptides for the treatment of fibrosis” (University of Pittsburgh—Of the Commonwealth System of …, priority 2009, dated 2020)

Tests used:
mouse lung = test: Bleomycin-induced pulmonary fibrosis in mice; type: in vivo; conditions: for fibrosis and Masson Trichrome staining: 10 μg/ml intratracheally, lungs harvested 10 days
Experimental: FIG. 10A-10C. E4 attenuates bleomycin induced lung fibrosis in vivo. A: Sixty μg of bleomycin was administrated intratracheally in combination with DMSO as a vehicle (Bleo) or E-4 (Bleo+E-4; 10 μg/ml). In some mice, E-4 (10 μg/ml) was administered intratracheally (IT) three days following bleomycin treatment (Bleo+E-4L). PBS was used as a vehicle for bleomycin (V). Lungs were harvested 10 days post-treatment. Representative images stained with H&E (left panel) and Masson trichrome (right panel) are representative of 3 independent experiments. Magnification, 100×. […] B: Quantification of acid soluble collagen obtained from mouse lungs treated as in panel C with V, Bleo, Bleo+E-4, and Bleo+E-4L. The levels of collagen are presented as μg/mg (lung) from three independent experiments. Unpaired-t test was used for statistical analysis. * P<0.05. […] For Bleo+E4L, Bleo was administered first, then there was a lag of three days between Bleo and E4 administration).
FIG. 11. E4 attenuates bleomycin induced lung fibrosis in vivo whether administered intraperitoneally (IP) or intratracheally (IT). Bleomycin was administered IT at day 1, and E4 was administered either IP or IT at day 3. Lungs were harvested at day 21. […] Thus E4 is effective at reducing fibrosis irrespective of the route of administration. Results are shown for vehicle alone (V), bleomycin alone (Bleo), bleomycin and E4 administered IP, and bleomycin and E4 administered IT.
E4, a peptide representing the carboxy terminus of human endostatin, can attenuate fibrosis triggered by multiple fibrogenic factors. The anti-fibrotic effects of E4 can be detected whether administered concomitantly with or following the fibrogenic trigger. The efficacy of E4 was confirmed in […] pre-clinical models of fibrosis: a) bleomycin-induced dermal fibrosis in vivo in mouse skin, b) TGF-β induced dermal fibrosis in mouse skin, and c) bleomycin-induced pulmonary fibrosis. E4 peptide or a control peptide (E1; representing the amino terminal region of endostatin) were administered at the same time as TGF-β or bleomycin or 3-4 days following TGF-β or bleomycin. […]
For these studies, fibrosis was assessed by measurement of dermal thickness on H&E skin sections (skin), assessment of collagen levels by Masson Trichrome staining (skin and lung), and measurement of collagen levels by Sircol assay (lung). Furthermore, to confirm the mechanism by which E4 exerts its anti-fibrotic effects, the production of extra-cellular matrix (ECM) components, the levels of enzymes that promote matrix stabilization and thus accumulation and levels of those that degrade ECM components, and levels of transcription factors downstream of the pro-fibrotic triggers were evaluated. Results were assessed using the unpaired t test and the 3-way ANOVA (for the ID1 data).

lysyl oxidase (LOX) = test: LOX immunohistochemistry in lung sections of bleomycin-treated mice; type: in vivo, mouse; conditions: lung sections of mice treated with bleomycin with or without E4
From the text: FIG. 12. […] Lung sections of mice treated with BLM with or without E4 were used in immunohistochemistry to detect LOX. The sections shown are control IgG, phosphate buffered saline, bleomycin and bleomycin followed by treatment with E4.
The results also evidenced that E4 exerts its anti-fibrotic effects via multiple pathways. E4 reduces levels of lysyl oxidase (LOX), and enzyme responsible for the cross-linking of collagen, elastin, and other extracellular matrix (ECM) molecules and thus the stabilization of the ECM.

ID1 = ID1 mRNA real-time PCR in primary human lung fibroblasts; type: cell-based
Experimental: FIG. 15. E4 reduces fibrosis in vitro by inducing expression of ID1, an inhibitor of TGF β, in primary human lung fibroblasts. Real-time PCR analysis was performed to determine the ID1 mRNA levels under the indicated conditions.

Egr-1 = Egr-1 western blot in primary human lung fibroblasts; type: cell-based; conditions: TGFβ followed by E4 after 60 minutes, harvested after 24 hours
Experimental: FIG. 16. E-4 reduces fibrosis in vitro by reducing levels of the master transcription factor Egr-1 in primary human lung fibroblasts. Reduction of Egr-1 levels parallels that of collagen, SMA, and fibronectin. Lane 1: vehicle (DMSO); Lane 2: E4; Lane 3: TGFβ, Lane 4 TGFβ followed by E4 after 60 minutes. The samples were harvested after 24 hours.
E4 also promotes the degradation of ECM components via induction and activation of matrix metalloprotease (MMP-2), an enzyme that degrades several ECM molecules including fibronectin and native and denatured collagens (FIG. 14). In addition, E4 increases levels of inhibitor of differentiation (ID)-1, a transcription factor that inhibits TGF-β effects (see FIG. 15). It was determined in a Western bloat analysis that E4 reduces the levels of the master switch transcription factor, Egr-1 (see FIG. 16) in primary human lung fibroblasts, treated and harvested after 24 hours. The reduction of Egr-1 levels parallels a reduction in collagen, SMA and fibronectin. Egr-1 is known to mediate the effects of several fibrotic agents (including TGF-β and bleomycin).

Substance: H-^133SYCETWRTEAPSATGQASSLLGGRLLGQSAASCHHAYIVLCIENSFMT^180-CONH2 (H-SYCETWRTEAPSATGQASSLLGGRLLGQSAASCHHAYIVLCIENSFMT-NH2; cysteine pairing not given here; UniProt P39060 1704-1751, looked up, fragment) [E4, amino acids 133-180 of human endostatin; differs from E3 by the presence of a carboxy-terminal amide]
- fibrosis and Masson Trichrome staining (mouse lung; concomitantly with bleomycin): marked reduction
- fibrosis and Masson Trichrome staining (mouse lung; three days following bleomycin): marked reduction
- bleomycin induced lung fibrosis (mouse lung; intraperitoneal at day 3, lungs harvested day 21): significant attenuation
- bleomycin induced lung fibrosis (mouse lung; intratracheal at day 3, lungs harvested day 21): significant attenuation
- levels of lysyl oxidase (LOX) (lysyl oxidase (LOX)): reduces
- levels of inhibitor of differentiation (ID)-1 (ID1): increases
- levels of Egr-1 (Egr-1): reduces
